Data reported in article PMC5433425 (PeerJ, 2017).
Values joined by “and” are separate entries in the source; they are usually repeats but may differ in a detail not shown here. Identical values can stand only once. Like-named read-outs stand apart in the source and are kept apart here. Peptide text beside a SMILES is read from it. * marks the point of attachment. βNA = c1ccc2cc(N*)ccc2c1

How the values were obtained:
[1] = tested on: E. coli K-12 AG100 (wild-type); experiment: MIC, broth microdilution; type: cell-based; conditions: Escherichia coli
[2] = Cytotoxicity, AlamarBlue method; type: cell-based, human; conditions: human
Procedure: (§1) The blood was collected from healthy donors and the peripheral blood mononuclear cells were isolated by Ficoll-Paque Plus (GE Healthcare, Freiburg, Germany) density gradient centrifugation as previously described ([Machado et al., 2016]). […] Fresh medium was added at day 4 post isolation. The effect of the compounds on human monocyte-derived macrophages was evaluated using the AlamarBlue method (Molecular Probes, Life Technologies) ([O’Brien et al., 2000]), and by measuring the release of the lactate dehydrogenase (LDH) into the culture supernatants using the Pierce LDH Cytotoxicity Assay (ThermoFisher Scientific, Waltham, MA, USA) ([Chan, Moriwaki & Rosa, 2013]) according to the manufacturer’s instructions. Briefly, 5 × 10^4 cells were seeded in 96-well microplates treated with the compounds, and incubated at 37 °C with 5% CO2. After 72 h of treatment, the cell viability was assessed. For the AlamarBlue method, the dye was added to each well to a final concentration of 10% and incubated overnight at 37 °C and 5% CO2. The fluorescence was measured with a 540/35 excitation filter and a 590/20 emission filter in a Synergy HT multi-mode microplate reader. The release of LDH from damaged cells into culture supernatants, as an indicator of cytotoxicity, was measured in serum-free medium. Here the amount of enzyme activity correlates to the number of damaged cells. The specific lysis was calculated as follows: (treated cells—spontaneous LDH release)/ (maximum LDH release—spontaneous LDH release) ×100.

[3] = tested on: human monocyte-derived macrophages; experiment: Cytotoxicity, AlamarBlue method; type: cell-based; conditions: human, 3 days
Procedure: as §1

[4] = tested on: human monocyte-derived macrophages; experiment: Cytotoxicity, LDH release; type: cell-based; conditions: human, 3 days
Procedure: as §1

E. coli AG100A = experiment: EtBr efflux by real-time fluorometry; conditions: 20 µM
Procedure: Control tubes with only cells and cells with and without 0.4% glucose were included. The fluorescence was measured in a Rotor-Gene 3000 and the data was acquired every 30 s for 30 min at 37 °C. The efflux activity was quantified by comparing the fluorescence data obtained under conditions that promote efflux (presence of glucose and absence of efflux inhibitor) with the data from the control in which the bacteria are under conditions of no efflux (presence of an inhibitor and no energy source).

In the case of `CN(C)CCCN1c2ccccc2Sc2ccc(Cl)cc21` [CPZ, chlorpromazine], the MIC ([1]; E. coli AG100 wild-type, read-out: MIC) is reported as 120 µg/mL and 338 µM, the CC50 at 3 days [2] is reported as 22.2 µM and the CC90 at 3 days [2] is reported as 37 µM. For the same compound, the CC10 [3] was 13.36 µM, the LDH release ([4]; 1.25 µM) was 0.95% and the LDH release ([4]; 20 µM) was 24%. For the same compound, the “EtBr fluorescence (Channel Cycling A.530/585hp)” value (“EtBr fluorescence” for short) (E. coli AG100A; cycle 1, + glucose) was 3.827, the “EtBr fluorescence” value (E. coli AG100A; cycle 1, without glucose) was 4.231 and the “EtBr fluorescence” value (E. coli AG100A; cycle 2, + glucose) was 3.676. For the same compound, the “EtBr fluorescence” value (E. coli AG100A; cycle 2, without glucose) was 4.204, the “EtBr fluorescence” value (E. coli AG100A; cycle 3, + glucose) was 3.648 and the “EtBr fluorescence” value (E. coli AG100A; cycle 3, without glucose) was 4.237. The “EtBr fluorescence” value (E. coli AG100A; cycle 4, without glucose) was 4.314, the “EtBr fluorescence” value (E. coli AG100A; cycle 5, without glucose) was 4.267 and the “EtBr fluorescence” value (E. coli AG100A; cycle 6, without glucose) was 4.36. The “EtBr fluorescence” value (E. coli AG100A; cycle 7, without glucose) was 4.4, the “EtBr fluorescence” value (E. coli AG100A; cycle 8, without glucose) was 4.486 and the “EtBr fluorescence” value (E. coli AG100A; cycle 9, + glucose) was 3.606. The “EtBr fluorescence” value (E. coli AG100A; cycle 9, without glucose) was 4.551, the “EtBr fluorescence” value (E. coli AG100A; cycle 10, + glucose) was 3.712 and the “EtBr fluorescence” value (E. coli AG100A; cycle 10, without glucose) was 4.522. The “EtBr fluorescence” value (E. coli AG100A; cycle 11, + glucose) was 3.667, the “EtBr fluorescence” value (E. coli AG100A; cycle 11, without glucose) was 4.614 and the “EtBr fluorescence” value (E. coli AG100A; cycle 12, + glucose) was 3.687. For the same compound, the “EtBr fluorescence” value (E. coli AG100A; cycle 12, without glucose) was 4.652, the “EtBr fluorescence” value (E. coli AG100A; cycle 13, + glucose) was 3.761 and the “EtBr fluorescence” value (E. coli AG100A; cycle 13, without glucose) was 4.775. The “EtBr fluorescence” value (E. coli AG100A; cycle 14, + glucose) was 3.711, the “EtBr fluorescence” value (E. coli AG100A; cycle 14, without glucose) was 4.879 and the “EtBr fluorescence” value (E. coli AG100A; cycle 15, + glucose) was 3.685. The “EtBr fluorescence” value (E. coli AG100A; cycle 15, without glucose) was 4.89, the “EtBr fluorescence” value (E. coli AG100A; cycle 16, + glucose) was 3.729 and the “EtBr fluorescence” value (E. coli AG100A; cycle 16, without glucose) was 4.933. For the same compound, the “EtBr fluorescence” value (E. coli AG100A; cycle 17, + glucose) was 3.749, the “EtBr fluorescence” value (E. coli AG100A; cycle 17, without glucose) was 4.963 and the “EtBr fluorescence” value (E. coli AG100A; cycle 18, + glucose) was 3.817. For the same compound, the “EtBr fluorescence” value (E. coli AG100A; cycle 18, without glucose) was 5.023, the “EtBr fluorescence” value (E. coli AG100A; cycle 19, + glucose) was 3.768 and the “EtBr fluorescence” value (E. coli AG100A; cycle 19, without glucose) was 5.067. For the same compound, the “EtBr fluorescence” value (E. coli AG100A; cycle 20, + glucose) was 3.821, the “EtBr fluorescence” value (E. coli AG100A; cycle 20, without glucose) was 5.072 and the “EtBr fluorescence” value (E. coli AG100A; cycle 21, + glucose) was 3.796. For the same compound, the “EtBr fluorescence” value (E. coli AG100A; cycle 21, without glucose) was 5.224, the “EtBr fluorescence” value (E. coli AG100A; cycle 22, + glucose) was 3.843 and the “EtBr fluorescence” value (E. coli AG100A; cycle 22, without glucose) was 5.19. For the same compound, the “EtBr fluorescence” value (E. coli AG100A; cycle 23, + glucose) was 3.825, the “EtBr fluorescence” value (E. coli AG100A; cycle 23, without glucose) was 5.293 and the “EtBr fluorescence” value (E. coli AG100A; cycle 24, + glucose) was 3.796. The “EtBr fluorescence” value (E. coli AG100A; cycle 24, without glucose) was 5.381, the “EtBr fluorescence” value (E. coli AG100A; cycle 25, + glucose) was 3.807 and the “EtBr fluorescence” value (E. coli AG100A; cycle 25, without glucose) was 5.403. The “EtBr fluorescence” value (E. coli AG100A; cycle 26, + glucose) was 3.836, the “EtBr fluorescence” value (E. coli AG100A; cycle 26, without glucose) was 5.546 and the “EtBr fluorescence” value (E. coli AG100A; cycle 27, + glucose) was 3.8908. For the same compound, the “EtBr fluorescence” value (E. coli AG100A; cycle 27, without glucose) was 5.462, the “EtBr fluorescence” value (E. coli AG100A; cycle 28, + glucose) was 3.846 and the “EtBr fluorescence” value (E. coli AG100A; cycle 28, without glucose) was 5.551. The “EtBr fluorescence” value (E. coli AG100A; cycle 29, + glucose) was 3.901, the “EtBr fluorescence” value (E. coli AG100A; cycle 29, without glucose) was 5.7035 and the “EtBr fluorescence” value (E. coli AG100A; cycle 30, + glucose) was 3.8738. For the same compound, the “EtBr fluorescence” value (E. coli AG100A; cycle 30, without glucose) was 5.804, the “EtBr fluorescence” value (E. coli AG100A; cycle 31, + glucose) was 3.964 and the “EtBr fluorescence” value (E. coli AG100A; cycle 31, without glucose) was 5.758. The “EtBr fluorescence” value (E. coli AG100A; cycle 32, + glucose) was 3.895, the “EtBr fluorescence” value (E. coli AG100A; cycle 32, without glucose) was 5.843 and the “EtBr fluorescence” value (E. coli AG100A; cycle 33, + glucose) was 3.921. The “EtBr fluorescence” value (E. coli AG100A; cycle 33, without glucose) was 5.872, the “EtBr fluorescence” value (E. coli AG100A; cycle 34, + glucose) was 3.877 and the “EtBr fluorescence” value (E. coli AG100A; cycle 34, without glucose) was 5.974. For the same compound, the “EtBr fluorescence” value (E. coli AG100A; cycle 35, + glucose) was 3.838, the “EtBr fluorescence” value (E. coli AG100A; cycle 35, without glucose) was 6.003 and the “EtBr fluorescence” value (E. coli AG100A; cycle 36, + glucose) was 3.873. For the same compound, the “EtBr fluorescence” value (E. coli AG100A; cycle 36, without glucose) was 6.052, the “EtBr fluorescence” value (E. coli AG100A; cycle 37, + glucose) was 3.865 and the “EtBr fluorescence” value (E. coli AG100A; cycle 37, without glucose) was 6.051. The “EtBr fluorescence” value (E. coli AG100A; cycle 38, + glucose) was 3.927, the “EtBr fluorescence” value (E. coli AG100A; cycle 38, without glucose) was 6.151 and the “EtBr fluorescence” value (E. coli AG100A; cycle 39, + glucose) was 3.914. For the same compound, the “EtBr fluorescence” value (E. coli AG100A; cycle 39, without glucose) was 6.208, the “EtBr fluorescence” value (E. coli AG100A; cycle 40, + glucose) was 4.038 and the “EtBr fluorescence” value (E. coli AG100A; cycle 40, without glucose) was 6.311. For the same compound, the “EtBr fluorescence” value (E. coli AG100A; cycle 41, + glucose) was 3.929, the “EtBr fluorescence” value (E. coli AG100A; cycle 41, without glucose) was 6.369 and the “EtBr fluorescence” value (E. coli AG100A; cycle 42, + glucose) was 3.925. The “EtBr fluorescence” value (E. coli AG100A; cycle 42, without glucose) was 6.396, the “EtBr fluorescence” value (E. coli AG100A; cycle 43, + glucose) was 3.906 and the “EtBr fluorescence” value (E. coli AG100A; cycle 43, without glucose) was 6.421. The “EtBr fluorescence” value (E. coli AG100A; cycle 44, + glucose) was 3.836, the “EtBr fluorescence” value (E. coli AG100A; cycle 44, without glucose) was 6.524 and the “EtBr fluorescence” value (E. coli AG100A; cycle 45, without glucose) was 6.6507. The “EtBr fluorescence” value (E. coli AG100A; cycle 46, without glucose) was 6.69, the “EtBr fluorescence” value (E. coli AG100A; cycle 47, without glucose) was 6.633 and the “EtBr fluorescence” value (E. coli AG100A; cycle 48, without glucose) was 6.748. For the same compound, the “EtBr fluorescence” value (E. coli AG100A; cycle 49, without glucose) was 6.869, the “EtBr fluorescence” value (E. coli AG100A; cycle 50, without glucose) was 6.908 and the “EtBr fluorescence” value (E. coli AG100A; cycle 51, without glucose) was 6.927. The “EtBr fluorescence” value (E. coli AG100A; cycle 52, without glucose) was 6.871, the “EtBr fluorescence” value (E. coli AG100A; cycle 53, without glucose) was 6.976 and the “EtBr fluorescence” value (E. coli AG100A; cycle 54, without glucose) was 6.9692. For the same compound, the “EtBr fluorescence” value (E. coli AG100A; cycle 55, without glucose) was 7.074, the “EtBr fluorescence” value (E. coli AG100A; cycle 56, without glucose) was 7.021 and the “EtBr fluorescence” value (E. coli AG100A; cycle 57, without glucose) was 7.172. The “EtBr fluorescence” value (E. coli AG100A; cycle 58, without glucose) was 7.396, the “EtBr fluorescence” value (E. coli AG100A; cycle 59, without glucose) was 7.291 and the “EtBr fluorescence” value (E. coli AG100A; cycle 60, without glucose) was 7.378. For the same compound, the “EtBr fluorescence” value (E. coli AG100A; cycle 61, without glucose) was 7.37.
For `NC(N)=NCCC[C@H](NC(=O)[C@@H](N)Cc1ccccc1)C(=O)Nc1ccc2ccccc2c1` [PAβN] (H-Phe-Arg-βNA), the MIC [1] was > 200 µg/mL and > 385 µM.
